“And” between values parts separate entries of the source, which are not always exact repeats. Equal entries are not always repeated. “Also recorded” adds a separate entry of the source. Where two headings read alike, the source gives them in different places.
Experiments:
[1] = biological target: T1, cellular retinol-binding protein (CRBP) (Rattus norvegicus, UniProt P02696); assay: Binding to cellular retinol-binding protein (CRBP): inhibition of [3H]retinol binding, sucrose density-gradient sedimentation
T1 construct: portions of rat testes cytosol (1 mg protein) were incubated; from tissue; host or cells: rat testes cytosol
T1 sequence (P02696 1-135): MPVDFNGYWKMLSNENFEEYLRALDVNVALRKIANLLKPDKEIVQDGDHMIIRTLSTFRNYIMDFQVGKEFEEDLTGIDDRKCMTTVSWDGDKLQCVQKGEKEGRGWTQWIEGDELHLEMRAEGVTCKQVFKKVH
Method: Binding affinities of the retinyl ethers for CRBP were determined by sucrose, density-gradient, sedimentation analysis as described before (Sani et al., 1980). Briefly, portions of rat testes cytosol (1 mg protein) were incubated with [^3 H]retinol (50 pmol) in the presence or absence of a 150-fold molar excess of unlabeled retinol or the test retinoids. The preparations after dialysis were analyzed by 5-20% sucrose density gradient sedimentation. For measuring the competitive binding of the unlabeled retinoids, inhibition of [^3 H]retinol binding to CRBP by unlabeled retinol is regarded as 100%. The mean and standard deviation calculated from the relative inhibitions obtained from multiple determinations were used as the relative binding affinities of the various retinyl ethers.
The group of retinyl benzyl ethers has now been evaluated for binding to CRBP. Binding to CRBP, as defined for Table I, at approximately 60% or higher was rated as strong; at 40-60%, as moderate; at 20-40%, as low.
^a Per cent inhibition of binding of tritiated retinol to CRBP by a
150-fold molar excess of the unlabelled test retinoid (Sani et al., 1980,

[2] = test system: mouse-skin papillomas; assay: Suppression of DMBA-initiated and TPA-promoted mouse-skin papillomas; type: in vivo; conditions: mouse-skin papilloma assay
From the text: (§1) Earlier, several alkyl, alkenyl, or alkynyl retinyl ethers had been assayed for inhibition of TPA-induced ornithine decarboxylase (ODC) in mouse skin and for the suppression of DMBA-initiated and TPA-promoted mouse-skin papillomas (Shealy et al., 1997). In comparison with control groups, these retinyl ethers were ineffective. Only a few representatives of the benzyl ethers were selected for tests in these assays. […] Because of these and the earlier results (Shealy et al., 1997), testing of retinyl benzyl ethers in the ODC and papilloma assays was discontinued.

[3] = test system: TPA-induced ornithine decarboxylase (ODC); assay: Inhibition of TPA-induced ornithine decarboxylase (ODC) in mouse skin; type: in vivo
From the text: as §1

[4] = Mammary tissue-to-plasma concentration after intravenous dosing; type: in vivo, rat (female Sprague-Dawley); conditions: rat, 5 mg/kg i.v., after 24 hr, read-out: ratio of mammary tissue-to-plasma concentrations
[5] = test system: MNU-induced mammary cancer; assay: Short-term (90-day) assay against MNU-induced mammary cancer in rats (Expts. 2 and 3); type: in vivo, rat (female Sprague-Dawley)
Method: Retinoid diet mixtures were stored at 4° C. […] The animals were palpated for mammary tumors 2×/week. […] Also, five rats/group had complete necropsies performed.
The 2,5-dimethoxybenzyl (3b) and 4-methoxybenzyl (3e) ethers were tested in the same way in a 90-day study. […] The 2,5-dimethybenzyl (3c) and the 2,3-dimethoxybenzyl (3h) ethers, together with RTMBE for comparison, were likewise assayed according to the same methodology. Prior to the beginning of this study, specimens of the retinoid-diet mixtures were placed under the conditions that were employed during the storage and feeding of RTMBE, 3c, and 3h. The specimens were extracted with butanol, and the extracts were analyzed by HPLC. […] Testing of 3c and 3h was discontinued, but the RTMBE study was continued until the duration of the study was 180 days (Table 6). The results were similar to those of Experiment 1 (Table 3). The averages of the number of tumors per rat were reduced by 32-35%; in addition, the averages of the tumor weights per rat was 56-70% lower than the average tumor burden of the control group.
and was continued until the studies of 3b, 3c, 3e, and 3h were terminated
90 days after administration of MNU. The RTMBE experiment was continued
until 180 days after MNU administration (Table VI).
kilogram of Teklad diet.

[6] = Stability of retinyl ethers in storage and in solution; type: physicochemical; conditions: weakly acidic ethanol solution
[7] = test system: NADPH-requiring enzymes in rat liver microsomes; conditions: literature; cited from earlier work
[8] = biological target: T1, cellular retinol-binding protein (CRBP); conditions: Sani, 1993; Sani et al., 1996; Shealy et al., 1997; cited from earlier work
[9] = test system: serum retinol-binding protein (RBP); conditions: 150-fold molar excess; Sani et al., 1996; cited from earlier work
[10] = test system: carcinogen-induced mammary cancer; conditions: cited from earlier work; for suppression of MNU-induced mammary cancer: Thompson et al., 1978 / Shealy et al.
[11] = Shealy et al., 1997, cited from earlier work; for toxicity in mammary carcinogenesis study: 2 mmol/kg of diet; for toxic dose in the feed after 90 days: Sprague-Dawley rats
[12] = Toxicity of retinyl ethers in mice by gavage during 28-29 days
Method: Toxicological evaluations involving measurement of body weights and observations of clinical signs characteristic of retinoid toxicity were accomplished as previously described (Lin et al., 1996).
RTMBE and two of its analogues, together with RME and RPE, were selected for estimation of their toxicities to mice when administered during 28-29 days by gavage in corn oil (Table 8). Mice were evaluated for changes in body weight and for signs of clinical retinoid toxicity (hypervitaminosis A) including alopecia, scaly skin, and limping. In the first experiment, these retinyl ethers were given at equimicromolar doses at three dose levels. The retinyl benzyl ethers (RTMBE, 3c, and 3e) were then tested at higher doses in a second experiment.

[13] = cited from earlier work; for stability in refluxing ethanol: 24 hours or similar, protected from light and air, Shealy et al, 1997
[14] = rat, in feed; Shealy et al., 1997; cited from earlier work
[15] = test system: MNU-induced mammary tumors
Method: The methods employed in the preparation of diets, analyses of retinoid-dietspecimens, and dietary treatment with retinoids of MNU-induced mammary carcinogenesis in Sprague-Dawley rats were described previously (Grubbs et al., 1995; Shealy et al., 1997). Briefly, diets were prepared by mixing each retinoid with Wayne meal or Teklad (4%) mash diet. For each kg of diet, the retinoid was dissolved in 12 g ethanol, 19 g trioctanoin, 0.05 mL Tenox 20, and 0.05 mL d,1-alpha tocopherol prior to incorporation into the feed using a Patterson-Kelly blender. Retinoid diet mixtures were stored at 4° C. Portions of each retinoid-diet mixture were analyzed for the added retinoid to ensure homogeneity. Female Sprague-Dawley rats received an i.v. injection of MNU (45 mg/kg body weight) at 50 days of age. Diet supplementation with retinoids was initiated three days after MNU. A group of rats receiving retinyl acetate (1 mmol/kg of diet) served as the positive control. The animals were palpated for mammary tumors 2×/week. At termination of the study, mammary tumors were processed for histological classification. Also, five rats/group had complete necropsies performed. The tissues were examined histologically for pathological lesions as additional toxicological evaluation. Extracts of the liver and mammary gland (5 rats/group) were analyzed by HPLC for retinyl palmitate and/or for the dosed retinoid. Statistical analyses of cancer incidence and latency were determined using logrank analysis, while differences in cancer multiplicity were determined employing the Armitage test.
^b Average number of palpable mammary tumors.
^c Diet supplementation with retinoids was initiated at 52 days of age
and was continued until the study was terminated 180 days after
administration of MNU. Treatment with retinoids is stated in millimoles of
retinoid per kilogram of diet (Wayne meal).
^d Female Sprague-Dawley rats received one i.v. injection of MNU (50
mg/kg of body weight) at 50 days of age.

[16] = test system: serum retinol-binding protein (RBP); assay: Binding to serum retinol-binding protein (RBP): inhibition of [3H]retinol binding; conditions: % of that of retinol
[17] = Shealy et al., 1997; cited from earlier work
[18] = Expt. 2, 0.5 mmol/kg diet, 90 days
[19] = Expt. 2, 1 mmol/kg diet, 90 days
[20] = Expt. 2, 2 mmol/kg diet, 90 days
[21] = oral gavage in corn oil, 28-29 days

## COc1ccc(OC)c(COC/C=C(C)/C=C/C=C(C)/C=C/C2=C(C)CCCC2(C)C)c1 [Compound 3b, Retinyl 2,5-Dimethoxybenzyl Ether]
[1]; 150-fold molar excess
  binding to CRBP, in words: good binder to CRBP
[1]; 150-fold molar excess of unlabelled test retinoid, rat testes cytosol
  Percent Inhibition of [3H] Retinol Binding (CRBP Assay): 59 ± 13%
[2]
  inhibition of papilloma formation: ineffective in inhibiting papilloma formation
[3]
  activity in ODC assay: not active in the ODC assay
[4]
  Kp at 24 h: 38 ± 20
[5]; 90-day assays, MNU-induced mammary carcinogenesis
  effectiveness compared with RTMBE: less effective than was RTMBE
[5]; 90-day study, 1 and 2 mmol/kg of diet
  reductions in the number of tumors per rat: 26-52%
[5]; 90 days, in feed
  effectiveness in reducing the number of tumors per rat: effective
[5]; [18]
  Tumors, % of Control Gp.: 77%
  Tumors, Avg. No. per Rat: 2.7
[5]; [19]
  Tumors, % of Control Gp.: 48%
  Tumors, Avg. No. per Rat: 1.7
[5]; [20]
  Tumors, % of Control Gp.: 74%
  Tumors, Avg. No. per Rat: 2.6
[6]
  stability in weakly acidic ethanol (formation of anhydroretinol, 4): 4 is isolated

## COC/C=C(C)/C=C/C=C(C)/C=C/C1=C(C)CCCC1(C)C [RME, retinyl methyl ether]
[7]
  conversion (demethylation) to retinol or its analogue: demethylated to retinol in rat liver; also recorded: converted, respectively, to retinol or its TMMP analogue; also recorded: demethylation of RME by microsomal oxidases to retinol
[8]
  binding to CRBP: bind to cellular retinol-binding protein (CRBP)
[9]
  inhibition of binding of tritiated retinol (RBP), relative to retinol: 100%
[10]; rats, Grubbs et al, 1977
  suppression of 7,12-DMBA-induced mammary cancer: suppress
[10]; rats, 1997
  suppression of MNU-induced mammary cancer: suppress
[11]
  toxicity in mammary carcinogenesis study: RME was (at 2 mmol/kg of diet)
  toxic dose in the feed after 90 days: > 1 mmole/kg of diet and < 2 mmole/kg of diet
[12]; [21]
  Toxic Dose: > 20 mg/kg day and < 40 mg/kg day
  toxic dose from body-weight data: < 40 mg/kg/day
[13]
  stability in refluxing ethanol: only minor degradation
[14]
  accumulation of retinyl palmitate in the liver: a toxic effect produced by efficacious amounts

## C#CCOC/C=C(C)/C=C/C=C(C)/C=C/C1=C(C)CCCC1(C)C [RPE, retinyl propynyl ether]
[10]; earlier 90-day study, 2 mmol/kg of diet, MNU, Shealy et al., 1997
  reduction of average number of tumors per rat: 48%
[10]; rats, 1997
  suppression of MNU-induced mammary cancer: inhibited the development of MNU-induced mammary cancer; also recorded: more effective than retinyl acetate
[15]; after 90 days, 2 mmol/kg diet (Table 7)
  reduction of average number of tumors per rat: 44%
[15]; by the end of the 180-day study, 2 mmol/kg diet (Table 7)
  reduction in the average number of tumors per rat: 16%
[15]; with MNU, 0.5 mmol/kg diet
  % of Control Gp., Day 90: 74%
  % of Control Gp., Day 180: 97%
  Avg No. Per Rat (palpable mammary tumors), Day 90: 1.7
  Avg No. Per Rat (palpable mammary tumors), Day 180: 6.2
[15]; with MNU, 2 mmol/kg diet
  % of Control Gp., Day 90: 56%
  % of Control Gp., Day 180: 84%
  Avg No. Per Rat (palpable mammary tumors), Day 90: 1.3
  Avg No. Per Rat (palpable mammary tumors), Day 180: 5.4
[15]; without MNU, 0.5 mmol/kg diet
  Avg No. Per Rat (palpable mammary tumors), Day 180: 0
[15]; without MNU, 2 mmol/kg diet
  Avg No. Per Rat (palpable mammary tumors), Day 180: 0
[11]
  toxicity in mammary carcinogenesis study: not toxireas
  toxic dose in the feed after 90 days: > 2 mmole/kg of diet
[12]; mouse, in vivo, po
  NOAEL: 43 mg/kg/day
[12]; [21]
  Toxic Dose: > 43 mg/kg day
[16]
  inhibition of [3H] retinol-binding (RBP), relative to that of retinol: 70%
[17]
  recovery from the feed of rats: recoverable from the feed of rats
[13]
  stability in refluxing ethanol: intramolecular cyclization
[13]; Shealy et al., 1996, 1997
  stability in the solid state and in solution: slowly undergoes an intramolecular Diels-Alder reaction
[14]
  accumulation in mammary tissue: accumulated in rat mammary tissue
  accumulation of retinyl palmitate in the liver: did not cause; also recorded: some increase in retinyl palmitate in the liver
